Assay results from patent US20050171358A1 (priority 2002, published 2005).

Key:
[1] = test system: Colletotrichum lagenarium; details: 200 ppm spray on cucumber (3 leaf stage), inoculated next day; lesion numbers on first and second leaves after 7 days in green house, graded by Table 5
Pyricularia oryzae = format: in vivo; details: 200 ppm spray on rice (Koshihikari, 3 leaf stage), inoculated next day; lesion numbers on third leaves after 7 days in green house, graded by Table 5

SMILES | Evaluation (effect for cucumber anthracnose) [1] | Evaluation (effect for rice blast) (Pyricularia oryzae)
O=C(NCc1cc(-c2ccccc2)no1)c1ccc(Cl)cc1 [III-124, N-[(3-phenyl-5-isoxazolyl)methyl]-4-chlorobenzamide] | 4 (1˜5) | 5 (0)
O=C(NCc1cc(-c2ccccc2)no1)c1ccc(C(F)(F)F)cc1 [III-130, N-[(3-phenyl-5-isoxazolyl)methyl]-4-trifluoromethylbenzamide] | 4 (1˜5) | 4 (1˜5)
N#Cc1ccc(C(=O)NCc2cc(-c3ccccc3)no2)cc1 [III-133, N-[(3-phenyl-5-isoxazolyl)methyl]-4-cyanobenzamide] | 4 (1˜5) | 4 (1˜5)
Cc1ccc(-c2cc(CNC(=O)c3ccccc3O)on2)cc1 [III-134, N-[(3-(4-tolyl)-5-isoxazolyl)methyl]-2-hydroxybenzamide] | 5 (0) | 3 (6˜10)
O=C(NCc1cc(-c2ccccc2)no1)c1ccc([N+](=O)[O-])cc1 [III-137, N-[(3-phenyl-5-isoxazolyl)methyl]-4-nitrobenzamide] | 5 (0) | 4 (1˜5)
O=C(NCc1cc(-c2ccccc2)no1)c1ccc(OC(F)(F)F)cc1 [III-139, N-[(3-phenyl-5-isoxazolyl)methyl]-4-trifluoromethoxybenzamide] | 5 (0) | 5 (0)
COc1ccc(C(=O)NCc2cc(-c3ccccc3)no2)cc1OC [III-156, N-[(3-phenyl-5-isoxazolyl)methyl]-3,4-dimethoxybenzamide] | 4 (1˜5) | 4 (1˜5)
Cc1ccc(-c2cc(CNC(=O)c3ccc(C)c(F)c3)on2)cc1 [III-162, N-[(3-(4-tolyl)-5-isoxazolyl)methyl]-3-fluoro-4-methylbenzamide] | 5 (0) | 5 (0)
O=C(NCc1cc(-c2ccccc2)no1)c1ccccn1 [III-174, (3-phenyl-5-isoxazolyl)methylaminocarbonyl-2-pyridine] | 4 (1˜5) | 4 (1˜5)
O=C(NCc1cc(-c2ccccc2)no1)c1cccs1 [III-177, (3-phenyl-5-isoxazolyl)methylaminocarbonyl-2-thiophene] | 4 (1˜5) | 4 (1˜5)
O=C(NCc1cc(-c2ccccc2)no1)c1ccc2c(c1)OCO2 [III-180, 5-(3-phenyl-5-isoxazolyl)methylaminocarbonyl-1,3-benzodioxol] | 5 (0) | 5 (0)
O=C(/C=C/c1ccccc1)NCc1cc(-c2ccccc2)no1 [III-201, (E)-N-[(3-phenyl-5-isoxazolyl)methyl]-3-phenylpropenamide] | 5 (0) | 5 (0)
O=C(NCc1cc(-c2ccccc2)no1)N1CCc2ccccc21 [III-208, N-[(3-phenyl-5-isoxazolyl)methylaminocarbonyl]indoline] | 4 (1˜5) | 4 (1˜5)
Cc1ccc(C(=O)NCc2cc(/C=C/c3ccccc3)no2)cc1 [III-210, N-{[3-(2-phenylethenyl)-5-isoxazolyl)methyl]-4-methylbenzamide] | 5 (0) | 5 (0)
CO/N=C/c1ccc(-c2cc(CNC(=O)c3ccc(C)cc3)on2)cc1 [III-214] | 5 (0) | 4 (1˜5)
COc1ccc(C(=O)NCc2cc(-c3ccc(OC)cc3F)no2)cc1 [III-215, N-{[3-(2-fluoro-4-methoxyphenyl)-5-isoxazolyl]methyl}-4-methoxylbenzamide] | 5 (0) | 5 (0)
COc1ccc(C(=O)NCc2cc(C=C(C)C)no2)cc1 [III-216, N-{[3-(2-methyl-1-propenyl)-5-isoxazolyl]methyl}-4-methoxylbenzamide] | 4 (1˜5) | 4 (1˜5)
Cc1ccc(C(=O)NCc2cc(-c3ccccn3)no2)cc1 [III-217, N-{[3-(2-pyridyl)-5-isoxazolyl]methyl}-4-methylbenzamide] | 4 (1˜5) | 4 (1˜5)
Cc1ccc(C(=O)NCc2cc(-c3cccnc3)no2)cc1 [III-218, N-{[3-(3-pyridyl)-5-isoxazolyl]methyl}-4-methylbenzamide] | 4 (1˜5) | 3 (6˜10)
Cc1ccc(C(=O)NCc2cc(-c3ccncc3)no2)cc1 [III-219, N-{[3-(4-pyridyl)-5-isoxazolyl]methyl}-4-methylbenzamide] | 3 (6˜10) | 3 (6˜10)

SMILES | Evaluation (effect for cucumber anthracnose) [1] | Evaluation (effect for rice blast) (Pyricularia oryzae)
COc1ccc(C(=O)NCc2cc(-c3ccsc3)no2)cc1 [III-220, N-{[3-(3-thienyl)-5-isoxazolyl]methyl}-4-methoxylbenzamide] | 3 (6˜10) | 3 (6˜10)
C/C=C/C=C/c1cc(CNC(=O)c2ccc(OC)cc2)on1 [III-221, N-{[3-(1,3-pentadienyl)-5-isoxazolyl]methyl}-4-methoxylbenzamide] | 2 (11˜20) | 2 (11˜20)
COc1ccc(C(=O)NCc2cc(-c3cc4ccccc4n3C)no2)cc1 [III-223, N-{[3-(1-methylindol-2-yl)-5-isoxazolyl]methyl}-4-methoxybenzamide] | 5 (0) | 5 (0)
COc1ccc(C(=O)NCc2cc(-c3nc4ccccc4s3)no2)cc1 [III-224, N-{[3-(benzo[d]thiazol-2-yl)-5-isoxazolyl]methyl}-4-methoxybenzamide] | 2 (11˜20) | 2 (11˜20)
COc1ccc(C(=O)NCc2cc(C(C)C)no2)cc1 [III-225, N-[(3-isopropyl-5-isoxazolyl)methyl]-4-methoxybenzamide] | 4 (1˜5) | 4 (1˜5)
Cc1ccc(-c2cc(CNC(=O)C3CCCC3)on2)cc1 [III-227, N-{[3-(4-tolyl)-5-isoxazolyl]methyl}cyclopentanecarboxamide] | 5 (0) | 5 (0)
Cc1ccc(-c2cc(CNC(=O)C3CCC3)on2)cc1 [III-228, N-{[3-(4-tolyl)-5-isoxazolyl]methyl}cyclobutanecarboxamide] | 3 (6˜10) | 4 (1˜5)
COc1ccc(C(=O)NCc2cc(CC(C)C)no2)cc1 [III-229, N-[(3-isobutyl-5-isoxazolyl)methyl]-4-methoxybenzamide] | 5 (0) | 5 (0)
CCC(CC)c1cc(CNC(=O)c2ccc(OC)cc2)on1 [III-230, N-{[3-(1-ethylpropyl)-5-isoxazolyl]methyl}-4-methoxybenzamide] | 5 (0) | 5 (0)
COc1ccc(C(=O)NCc2cc(-c3ccccc3Cl)no2)cc1 [III-231, N-{[3-(2-chlorophenyl)-5-isoxazolyl]methyl}-4-methoxybenzamide] | 5 (0) | 5 (0)
COc1ccc(C(=O)NCc2cc(-c3nc(-c4ccccc4)no3)no2)cc1 [III-232, N-{[3-(3-phenyl-1,2,4-oxadiazol-5-yl)-5-isoxazolyl]methyl]-4-methoxybenzamide] | 2 (11˜20) | 3 (6˜10)
CCCCc1cc(CNC(=O)c2ccc(OC)cc2)on1 [III-235, N-[(3-butyl-5-isoxazolyl)methyl]-4-methoxybenzamide] | 4 (1˜5) | 4 (1˜5)
CCC(C)c1cc(CNC(=O)c2ccc(OC)cc2)on1 (centres unmarked) [III-236, N-[(3-sec-butyl-5-isoxazolyl)methyl]-4-methoxybenzamide] | 4 (1˜5) | 4 (1˜5)
COc1ccc(C(=O)NCc2cc(C(C)(C)C)no2)cc1 [III-237, N-[(3-tert-butyl-5-isoxazolyl)methyl]-4-methoxybenzamide] | 3 (6˜10) | 3 (6˜10)
COc1ccc(C(=O)NCc2cc(C3CCCCC3)no2)cc1 [III-238, N-[(3-cyclohexyl-5-isoxazolyl)methyl]-4-methoxybenzamide] | 5 (0) | 4 (1˜5)
Cc1ccc(-c2cc(CNC(=O)c3cc(Cl)nc(Cl)c3)on2)cc1 [III-240, N-{[3-(4-tolyl)-5-isoxazolyl]methyl}-2,6-dichloropyridine-4-carboxamide] | 2 (11˜20) | 2 (11˜20)
CC(C)c1cc(CNC(=O)c2cc(Cl)nc(Cl)c2)on1 [III-243, N-[(3-isopropyl-5-isoxazolyl)methyl]-2,6-dichloropyridine-4-carboxamide] | 1 (21˜41) | 2 (11˜20)
CCCc1cc(CNC(=O)c2ccc(OC)cc2)on1 [III-245, N-[(3-propyl-5-isoxazolyl)methyl]-4-methoxybenzamide] | 5 (0) | 5 (0)
CCCC(C)c1cc(CNC(=O)c2ccc(OC)cc2)on1 (centres unmarked) [III-246, N-[(3-sec-pentyl-5-isoxazolyl)methyl]-4-methoxybenzamide] | 3 (6˜10) | 3 (6˜10)
COc1ccc(C(=O)NCc2cc(-c3ccc(C)o3)no2)cc1 [III-247, N-{[3-(2-methylfuran-5-yl)-5-isoxazolyl]methyl}-4-methoxybenzamide] | 5 (0) | 5 (0)
